Results: US10994010B2, “Selective targeting of the CD40L/Mac-1 interaction by small peptide inhibitors and its use for the treatment of inflammation and atherogenesis” (Universitaetsklinikum Freiburg, priority 2010, dated 2021)
No end group written: not given here.

Tests used:
[1] = system: human granulocytes and monocytes; assay: Flow cytometry: binding of CD40L to human granulocytes and monocytes; assay type: cell-based
Experimental: (§1) Flow cytometric analysis, platelet activation assays, and quantification of leukocyte-platelet aggregates, were performed as previously described (Zirlik et al., 2007). Binding of cM7 to CD40L-expressing murine fibroblasts was determined by quantification of FITC-coupled cM7. Binding of CD40L to Mac-1 expressing CHO-cells or human leukocytes was performed by incubation with CD40L (10 μg/ml) and subsequent detection with anti-PentaHis antibody (Qiagen).
(§2) Flow cytometric analyses, as well as platelet activation assays and quantification of leukocyte-platelet aggregates were performed as previously described (Quezada et al., Ann. Rev. Immunol. (2004), pp 307-328). Briefly, murine blood samples were taken by intracardiac puncture. Red cells were lyzed in 155 mM NH4Cl, 5.7 mM K2HPO4, 0.1 mM EDTA, pH 7.3. […] Antibodies for epitope specific fluorescence-activated cell sorting (FACS Calibur, BD) included anti-CD11b, anti-CD115, anti-Gr-1, anti-CD4, anti-CD8, anti-CD20, anti-CD41, anti-CD62P, anti-CD54, anti-CD102, and anti-CD106 (all from Ebioscience). Binding of cM7 to CD40L- or mock-transfected murine fibroblasts was determined by incubation of FITC-cM7 at the indicated concentrations with cells for 30 min at 37° C. and subsequent quantification of the fluorescence in the FL-1 channel. […]

[2] = biological target: T1, CD40L binding to Mac-1 I-domain (Homo sapiens, UniProt P29965); assay: Solid phase binding assay: blocking of CD40L binding to immobilized Mac-1 I-domain by peptides; conditions: for blocking of CD40L / Mac-1 I-domain binding: peptides 50 μM
T1 construct: inserting the coding DNA for amino acids E^108 to L^261 in pHOG-21; His (N); trimerization domain (N); made in house
T1 sequence (P29965 108-261): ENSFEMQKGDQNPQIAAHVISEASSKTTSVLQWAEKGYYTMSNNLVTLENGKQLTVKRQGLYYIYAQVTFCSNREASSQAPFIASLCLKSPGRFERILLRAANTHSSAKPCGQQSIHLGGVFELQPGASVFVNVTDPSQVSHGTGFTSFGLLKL
Experimental: (§3) Solid phase binding assay. Recombinant CD40L was incubated with immobilized Mac-1 I-domain in the presence or absence of blocking peptides. Binding of sCD40L was detected by addition of anti-cmyc-HRP (Invitrogen), TMB-substrate (Pierce), and colorimetric reaction. Alternatively, CD40L (Provitro) was immobilized, and binding of the recombinant Mac-1 I-domain was quantified by addition of anti-His-Biotin (Qiagen), and HRP-coupled streptavidin (Pierce). For the binding to immobilized peptides, CD40L was biotinylated with the Micro Biotinylation Kit (Sigma). A mixture of equal molarities of all peptides served as the positive control in this assay.
The recombinant Mac-1 I-domain was immobilized in 96-well plates (Nunc) in PBS at 4° C. overnight. After blocking in 2% BSA/PBS and subsequent washing with PBS, recombinant CD40L was added to the wells in the indicated concentrations and incubated for 2 hours at 37° C. Effect of the peptides M1-M8 was assessed by incubating CD40L (10 μg/ml) in the presence of peptides (50 μM). After removing of unbound CD40L by washing with 0.1% Tween-20/PBS, anti-c-myc-HRP (Invitrogen) was added and incubated for 2 hours at room temperature. Binding was quantified by addition of TMB-substrate (Pierce), colorimetric reaction at 450 nm. Alternatively, CD40L without a His-tag (Provitro) was immobilized and blocked as described above. Binding of the recombinant Mac-1 I-domain was quantified by addition of anti-His-Biotin monoclonal antibody (Qiagen), HRP-coupled streptavidin (Pierce) and colorimetric reaction at 450 nm. For the specific binding of the Mac-1 I-domain BSA-coated wells were subtracted from the CD40L-coated. Kd was estimated using a one-site binding hyperbola nonlinear regression model with the Software Prism (Graphpad). For quantification of the binding of CD40L to peptides, peptides were immobilized in 96-well plates overnight at 4° C. in 50 mM sodium carbonate, pH 10.6. CD40L was biotinylated using the Micro-Biotinylation-Kit (Sigma) following the manufacturer's instructions and detected by HRP-coupled streptavidin (Pierce) and colorimetric reaction. A mixture of equal molarities of all peptides served as positive control. Absorbance on BSA-coated wells served as negative control and was subtracted.

[3] = system: Mac-1 expressing CHO cells; assay: Flow cytometry: binding of CD40L to Mac-1 expressing CHO cells; assay type: cell-based; conditions: peptides 50 μM
Experimental: as §1, §2

[4] = system: adhesion of THP-1 cells to CD40L; assay: Static adhesion assay: activated THP-1 cells on immobilized CD40L; assay type: cell-based; conditions: peptides 50 μM
Experimental: (§4) 96-well plates (Nunc) were coated with sCD40L and incubated with CHO cells expressing constitutively activated Mac-1, as described previously, or THP-1 cells. Cells were allowed to adhere for 20 to 50 minutes. Blocking antibodies (10 μg/ml) were pre-incubating with the cells. As indicated, assays were carried out in the presence of peptides (50 μM). Permeabilization buffer (6 mg/ml phosphatase substrate (Sigma), 1% Triton X-100, 50 mM sodium acetate, pH 5.5) was added to quantify adhering cells by colorimetric reaction. Alternatively, adhering cells were counted. Murine EC were isolated as previously described. Mac-1 expressing CHO were loaded with CFDA-SE (Invitrogen), allowed to adhere for 45 minutes, and quantified under the fluorescence microscope. […] Adhering and rolling cells were quantified in a parallel flow chamber system (Glycotech) at the indicated shear rates and in the presence of the indicated peptides (1 μM) or antibodies (10 μg/ml). […]
96-well plates (Nunc) were coated with sCD40L (10 μg/ml) in PBS overnight at 4° C. […] After removal of unbound cells by washing with PBS, permeabilization buffer (6 mg/ml phosphatase substrate (Sigma), 1% Triton X-100, 50 mM sodium acetate, pH 5.5) was added for 1 hour at 37° C. and adhering cells were quantified by colorimetric reaction at 405 nm. Alternatively, adhering cells were counted under the microscope (Zeiss). […]

CD40L = biological target: T2, CD40L (Homo sapiens, UniProt P29965); assay: Solid phase assay: direct binding of biotinylated CD40L to immobilized peptides
T2 construct: inserting the coding DNA for amino acids E^108 to L^261 in pHOG-21; c-myc (N); His (N); trimerization domain (N); made in house; host or cells: E. coli TG-1
T2 sequence (P29965 108-261): T1 sequence (P29965 108-261)
Experimental: as §3
The recombinant Mac-1 I-domain was immobilized in 96-well plates (Nunc) in PBS at 4° C. overnight. […] Effect of the peptides M1-M8 was assessed by incubating CD40L (10 μg/ml) in the presence of peptides (50 μM). […] Binding was quantified by addition of TMB-substrate (Pierce), colorimetric reaction at 450 nm. […] Binding of the recombinant Mac-1 I-domain was quantified by addition of anti-His-Biotin monoclonal antibody (Qiagen), HRP-coupled streptavidin (Pierce) and colorimetric reaction at 450 nm. […] For quantification of the binding of CD40L to peptides, peptides were immobilized in 96-well plates overnight at 4° C. in 50 mM sodium carbonate, pH 10.6. […] Absorbance on BSA-coated wells served as negative control and was subtracted.

[5] = system: adhesion of Mac-1-CHO cells to GPIbα; assay: Dynamic flow chamber assay: Mac-1-CHO cells on GPIbα; assay type: cell-based; conditions: peptides 1 μM
Experimental: as §4
For dynamic adhesion assays, 35 mm dishes were coated overnight at 4° C. with 1% BSA, CD40L, GPIbα (Abnova), ICAM-1 (R&D systems) or fibrinogen (Sigma), at a concentration of 10 μg/ml, and 30 μg/ml, respectively. […] Cells were quantified under the microscope (Olympus). […] Adhesion and rolling of peritoneal exudate cells on isolated murine endothelial cells was quantified as described above. […]

## EQLKKSKTL [Peptide M7]
[1]
  blocking of binding of CD40L to human granulocytes and monocytes: the only peptide blocking binding of CD40L to human granulocytes and monocytes
[2]; concentration dependent
  IC50: ~4 µM
[2]
  blocking of CD40L / Mac-1 I-domain binding: emerged as potential candidate inhibitors
[3]
  blocking of binding of CD40L to Mac-1-CHO cells: neutralized binding of CD40L
[4]
  blocking of adhesion of THP-1 cells to CD40L: most efficiently blocked adhesion of THP-1 cells to CD40L
CD40L
  direct binding of CD40L to immobilized peptide: mediated direct binding to CD40L

## PITQLLGRTHTATGIRK (therapeutically active peptide) [Peptide M2, GPIbα-specific control peptide]
[2]
  blocking of CD40L / Mac-1 I-domain binding: not affecting CD40L-Mac-1 binding
[5]
  effect on adhesion of Mac-1-CHO cells to GPIbα: blocked the interaction between Mac-1 and GPIbα
